Experimental data from patent US9409870B2, “Compounds” (CHIESI FARMACEUTICI S.p.A., priority 2014, dated 2016).
Structures can show the parent of a compound that is named as a salt.

Target: T1, human neutrophil elastase (HNE) (Homo sapiens, UniProt P08246)
T1 construct: purchased Sigma E8140
T1 sequence (P08246 30-247 limits assumed): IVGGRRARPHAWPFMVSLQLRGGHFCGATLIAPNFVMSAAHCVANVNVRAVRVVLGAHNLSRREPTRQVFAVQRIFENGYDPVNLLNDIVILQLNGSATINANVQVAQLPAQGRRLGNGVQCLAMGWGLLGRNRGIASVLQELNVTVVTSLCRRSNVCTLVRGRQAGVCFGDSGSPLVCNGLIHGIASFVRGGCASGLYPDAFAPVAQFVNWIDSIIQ
Assay: HNE enzyme activity assay (fluorogenic peptide substrate MeOSuc-Ala-Ala-Pro-Val-AMC)
Type: biochemical
Conditions: human leukocyte elastase 0.00072 U/mL, substrate 100 μM, 25° C., 30 minutes, pH 7.5; at least two separate experiments; read-out: FINE inhibition (HNE enzyme inhibition, IC50 values)
Procedure: Compounds of this invention were tested for potency in a human neutrophil elastase (HNE) enzyme activity assay.
Assays were performed in 96-well plates in a total assay volume of 100 μL. The final concentration of elastase enzyme (human leukocyte elastase, Sigma E8140) was 0.00072 U/mL. The peptide substrate (MeOSuc-Ala-Ala-Pro-Val-AMC, Calbiochem #324740) was used at a final concentration of 100 μM. The final concentration of DMSO was 1% in the assay buffer (0.05M Tris.HCl, 0.1M NaCl, 0.1M CaCl2, 0.0005% brij-35, pH 7.5). The enzymatic reaction was started by addition of the enzyme and incubated at 25° C. for 30 minutes. After incubation, the reaction was stopped by addition of soybean trypsin inhibitor (Sigma T9003) at a final concentration of 50 μg/well. Fluorescence was measured using a Molecular Devices fluorescence plate reader using 380 nm excitation and 460 nm emission wavelengths.
A dose response to each compound was performed and the effect of compound in each experiment was expressed as a percentage inhibition of the control enzyme fluorescence. Dose response curves were plotted and compound potency (IC50) was determined. Compounds were tested in at least two separate experiments.

| Compound | IC50 [nM] |
| --- | --- |
| Cc1c(-c2nccn2-c2ccc(C#N)cc2)n(C(=O)NCc2ccc(S(C)(=O)=O)cc2)c(=O)n1-c1cccc(C(F)(F)F)c1 [Example 62, 1-(4-Cyano-phenyl)-5′-methyl-2′-oxo-1′-(3-trifluoromethyl-phenyl)-1′,2′-dihydro-1H-[2,4′]biimidazolyl-3′-carboxylic acid 4-methanesulfonyl-benzylamide] | < 1 |
| Cc1c(-c2ccnn2-c2ccc(C#N)cc2)n(C(=O)NCCCN(C)C)c(=O)n1-c1cccc(C(F)(F)F)c1 [Example 9, 5-[1-(4-Cyanophenyl)-1H-pyrazol-5-yl]-N-[3-(dimethylamino)propyl]-4-methyl-2-oxo-3-[3-(trifluoromethyl)phenyl]-2,3-dihydro-1H-imidazole-1-carboxamide] | 1 to 10 |
| Cc1c(-c2ccnn2-c2ccc(C#N)cc2)n(CC(=O)N2CCCC2)c(=O)n1-c1cccc(C(F)(F)F)c1 [Example 36, 4-{5-[5-Methyl-2-oxo-3-(2-oxo-2-pyrrolidin-1-yl-ethyl)-1-(3-trifluoromethylphenyl)-2,3-dihydro-1H-imidazol-4-yl]-pyrazol-1-yl}-benzonitrile] | 1 to 10 |
| Cc1c(-c2ccnn2-c2ccc(C#N)cc2)n(C(=O)NCCN(C)C)c(=O)n1-c1cccc(C(F)(F)F)c1 [Example 12, 5-[1-(4-Cyanophenyl)-1H-pyrazol-5-yl]-N-[2-(dimethylamino)ethyl]-4-methyl-2-oxo-3-[3-(trifluoromethyl)phenyl]-2,3-dihydro-1H-imidazole-1-carboxamide] | 1 to 10 |
| Cc1c(-c2nccn2-c2ccc(C#N)cc2)[nH]c(=O)n1-c1cccc(C(F)(F)F)c1 [Example 59, 4-[5′-Methyl-2′-oxo-1′-(3-trifluoromethyl-phenyl)-2′,3′-dihydro-1′H-[2,4]biimidazolyl-1-yl]-benzonitrile] | 10 to 50 |
| Cc1c(-c2ccnn2-c2ccc(C#N)cc2)n(C(=O)NCC[N+](C)(C)C)c(=O)n1-c1cccc(C(F)(F)F)c1 [Example 25, Benzenesulfonate 2-[({5-[1-(4-cyanophenyl)-1H-pyrazol-5-yl]-4-methyl-2-oxo-3-[3-(trifluoromethyl)phenyl]-2,3-dihydro-1H-imidazol-1-yl}carbonyl)amino]-N,N,N-trimethylethanaminium] | 1 to 10 |
| Cc1c(-c2ccnn2-c2ccc(C#N)cc2)n(C(=O)N[C@H]2CCN(C)C2)c(=O)n1-c1cccc(C(F)(F)F)c1 [Example 47, 5-[2-(4-Cyano-phenyl)-2H-pyrazol-3-yl]-4-methyl-2-oxo-3-(3-trifluoromethyl-phenyl)-2,3-dihydro-imidazole-1-carboxylic acid ((S)-1-methyl-pyrrolidin-3-yl)-amide] | < 1 |
| CCNS(=O)(=O)n1c(-c2ccnn2-c2ccc(C#N)cc2)c(C)n(-c2cccc(C(F)(F)F)c2)c1=O [Example 33, 5-[2-(4-Cyano-phenyl)-2H-pyrazol-3-yl]-4-methyl-2-oxo-3-(3-trifluoromethylphenyl)-2,3-dihydro-imidazole-1-sulfonic acid ethylamide] | 1 to 10 |
| CCCC(C)n1c(-c2ccnn2-c2ccc(C#N)cc2)c(C)n(-c2cccc(C(F)(F)F)c2)c1=O (centres unmarked) [Example 28, 4-{5-[5-Methyl-3-(1-methyl-butyl)-2-oxo-1-(3-trifluoromethyl-phenyl)-2,3-dihydro-1H-imidazol-4-yl]pyrazol-1-yl}-benzonitrile] | 1 to 10 |
| Cc1c(-c2ccnn2-c2ccc(C#N)cc2)n(C(=O)NC2CC2)c(=O)n1-c1cccc(C(F)(F)F)c1 [Example 42, 5-[2-(4-Cyano-phenyl)-2H-pyrazol-3-yl]-4-methyl-2-oxo-3-(3-trifluoromethyl-phenyl)-2,3-dihydro-imidazole-1-carboxylic acid cyclopropylamide] | < 1 |
| Cc1c(-c2ccnn2-c2ccc(C#N)cc2)n(C(=O)N[C@@H]2CCC[C@H]2O)c(=O)n1-c1cccc(C(F)(F)F)c1 [Example 53, 5-[2-(4-Cyano-phenyl)-2H-pyrazol-3-yl]-4-methyl-2-oxo-3-(3-trifluoromethyl-phenyl)-2,3-dihydro-imidazole-1-carboxylic acid ((1R,2R)-2-hydroxy-cyclopentyl)-amide] | < 1 |
| Cc1c(-c2ccnn2-c2ccc(C#N)cc2)n(C(=O)NCc2ccn(C)n2)c(=O)n1-c1cccc(C(F)(F)F)c1 [Example 17, 5-[1-(4-Cyanophenyl)-1H-pyrazol-5-yl]-4-methyl-N-[(1-methyl-1H-pyrazol-3-yl)methyl]-2-oxo-3-[3-(trifluoromethyl)phenyl]-2,3-dihydro-1H-imidazole-1-carboxamide] | < 1 |
| COCCNC(=O)n1c(-c2ccnn2-c2ccc(C#N)cc2)c(C)n(-c2cccc(C(F)(F)F)c2)c1=O [Example 11, 5-[1-(4-Cyanophenyl)-1H-pyrazol-5-yl]-N-(2-methoxyethyl)-4-methyl-2-oxo-3-[3-(trifluoromethyl)phenyl]-2,3-dihydro-1H-imidazole-1-carboxamide] | < 1 |
| Cc1c(-c2ccnn2-c2ccc(C#N)cc2)n(C(=O)NCCCO)c(=O)n1-c1cccc(C(F)(F)F)c1 [Example 8, 5-[1-(4-Cyanophenyl)-1H-pyrazol-5-yl]-N-(3-hydroxypropyl)-4-methyl-2-oxo-3-[3-(trifluoromethyl)phenyl]-2,3-dihydro-1H-imidazole-1-carboxamide] | < 1 |
| Cc1c(-c2ccnn2-c2ccc(C#N)cc2)[nH]c(=O)n1-c1cccc(C(F)(F)F)c1 [Example 1, 4-(5-{5-Methyl-2-oxo-1-[3-(trifluoromethyl)phenyl]-2,3-dihydro-1H-imidazol-4-yl}-1H-pyrazol-1-yl)benzonitrile] | 10 to 50 |
| Cc1c(-c2ccnn2-c2ccc(C#N)cc2)n(CC(=O)NCCCN(C)C)c(=O)n1-c1cccc(C(F)(F)F)c1 [Example 39, 2-[5-[2-(4-Cyano-phenyl)-2H-pyrazol-3-yl]-4-methyl-2-oxo-3-(3-trifluoromethyl-phenyl)-2,3-dihydro-imidazol-1-yl]-N-(3-dimethylaminopropyl)-acetamide formic acid salt] | 10 to 50 |
| Cc1c(-c2ccnn2-c2ccc(C#N)cc2)n(CC(=O)O)c(=O)n1-c1cccc(C(F)(F)F)c1 [Example 22, {5-[1-(4-Cyanophenyl)-1H-pyrazol-5-yl]-4-methyl-2-oxo-3-[3-(trifluoromethyl)phenyl]-2,3-dihydro-1H-imidazol-1-yl}acetic acid] | 10 to 50 |
| Cc1c(-c2ccnn2-c2ccc(C#N)cc2)n(C(=O)N[C@@H]2CCOC2)c(=O)n1-c1cccc(C(F)(F)F)c1 [Example 16, 5-[1-(4-Cyanophenyl)-1H-pyrazol-5-yl]-4-methyl-2-oxo-N-[(3R)-tetrahydrofuran-3-yl]-3-[3-(trifluoromethyl)phenyl]-2,3-dihydro-1H-imidazole-1-carboxamide] | < 1 |
| Cc1c(-c2ccnn2-c2ccc(C#N)cc2)n(C(=O)NC2CCOCC2)c(=O)n1-c1cccc(C(F)(F)F)c1 [Example 44, 5-[2-(4-Cyano-phenyl)-2H-pyrazol-3-yl]-4-methyl-2-oxo-3-(3-trifluoromethyl-phenyl)-2,3-dihydro-imidazole-1-carboxylic acid (tetrahydro-pyran-4-yl)-amide] | < 1 |
| Cc1c(-c2ccnn2-c2ccc(C#N)cc2)n(CC(=O)OC(C)(C)C)c(=O)n1-c1cccc(C(F)(F)F)c1 [Example 20, tert-Butyl-{5-[1-(4-cyanophenyl)-1H-pyrazol-5-yl]-4-methyl-2-oxo-3-[3-(trifluoromethyl)phenyl]-2,3-dihydro-1H-imidazol-1-yl}acetate] | 10 to 50 |
